Test results from patent US20030026766A1 (priority 2000, published 2003).

Target: T1, glucocorticoid receptor (Homo sapiens, UniProt P04150)
T1 sequence (P04150 1-777): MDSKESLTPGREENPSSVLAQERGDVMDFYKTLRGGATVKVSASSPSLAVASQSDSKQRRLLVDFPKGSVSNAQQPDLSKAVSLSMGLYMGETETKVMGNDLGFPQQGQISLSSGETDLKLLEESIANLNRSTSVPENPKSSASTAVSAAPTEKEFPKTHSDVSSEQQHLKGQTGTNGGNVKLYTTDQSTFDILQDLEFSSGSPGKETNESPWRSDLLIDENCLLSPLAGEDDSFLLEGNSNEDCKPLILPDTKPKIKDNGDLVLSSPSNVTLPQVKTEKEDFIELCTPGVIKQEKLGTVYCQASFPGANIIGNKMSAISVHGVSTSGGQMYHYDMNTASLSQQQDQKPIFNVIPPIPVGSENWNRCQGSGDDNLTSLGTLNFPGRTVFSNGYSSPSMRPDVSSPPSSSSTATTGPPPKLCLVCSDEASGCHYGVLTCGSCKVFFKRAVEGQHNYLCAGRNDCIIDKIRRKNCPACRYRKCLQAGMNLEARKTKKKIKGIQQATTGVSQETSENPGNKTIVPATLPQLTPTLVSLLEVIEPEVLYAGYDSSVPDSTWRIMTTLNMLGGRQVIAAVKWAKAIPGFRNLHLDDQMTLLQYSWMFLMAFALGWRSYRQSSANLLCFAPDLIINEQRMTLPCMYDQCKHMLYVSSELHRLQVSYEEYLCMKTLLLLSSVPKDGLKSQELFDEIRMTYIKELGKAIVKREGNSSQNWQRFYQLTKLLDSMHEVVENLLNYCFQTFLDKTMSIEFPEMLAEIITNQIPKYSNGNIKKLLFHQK
Assay: Western Blot analysis of glucocorticoid receptor translocation into the nucleus in U937 cells
Details: nuclear extract, GR band at approximately 94 kDa by densitometry, control = 100, proportional to increase in GR translocation into the nucleus

OCc1cc(C(O)CNCCCCCCOCCCCc2ccccc2)ccc1O (stereo not shown) [Salmeterol]
% Change in Band Density: 183 ± 12%
